Data set [1] is described as follows: Equilibrium solubility of bazedoxifene ascorbate in 0.0005 M acetic acid at 37° C. Type of data set: physicochemical. The conditions noted are these: aqueous buffer, thermodynamic from solid, filtered 0.2 um, HPLC. Here is the method:
The samples were rotated at 50 rotation/min for 18 hours. All samples were filtered through 0.2 um (Nylon Acrodisc) filter. Samples were analyzed by HPLC.

Another data set relates to uterine response. The conditions noted are these: preclinical models of uterine stimulation; cited from earlier work.
Data set [2] relates to ovariectomized rat model of osteopenia. The conditions noted are these: cited from earlier work.
In data set [3] the test system is MCF-7 cell line (human breast cancer cell line). The conditions noted are these: cited from earlier work.

≈ marks a conversion by molar mass, not a printed value.

The solubility (thermodynamic) is the concentration in solution at equilibrium with solid. `Cc1c(-c2ccc(O)cc2)n(Cc2ccc(OCCN3CCCCCC3)cc2)c2ccc(O)cc12` [bazedoxifene ascorbate, 1-[4-(2-azepan-1-yl-ethoxy)-benzyl]-2-(4-hydroxy-phenyl)-3-methyl-1H-indol-5-ol] came in with a solubility (thermodynamic) at 18 h in data set [1] of 1660 µg/mL (≈ 3.53 mM).
Take `Cc1c(-c2ccc(O)cc2)n(Cc2ccc(OCCN3CCCCCC3)cc2)c2ccc(O)cc12` [bazedoxifene acetate]: in the data set with uterine response, the “stimulation of uterine response” value is “little or no stimulation of uterine response”. Further, in data set [2], the “effect on bone loss” value is “estrogen agonist-like effect in preventing bone loss” and the effect on cholesterol result is “reducing cholesterol”. Further, in data set [3], the estrogen agonist/antagonist behaviour result is “behaves as an estrogen antagonist”.
